Results on 4 molecules are retold here after patent publication US20210308110A1, “ANTIVIRAL COMPOUNDS AND METHOD FOR TREATING RNA VIRAL INFECTION, PARTICULARLY COVID-19” (Senhwa Biosciences, Inc., priority 2020, published 2021).

Where only a bound is given, the exact number is not on record here.

Data set [1] deals with SARS-CoV-2. As to the kind of experiment: SARS-CoV-2 plaque reduction neutralization test, plaque formation. The data set is classed as cell-based. The following applies: at 1.25 μM.
Data set [2] in a line: Cell viability test by Cell Counting Kit-8 (CCK-8). The following applies: African green monkey. For orientation: Tetrazolium dyes change colour on reduction, which living cells bring about.
The subject of data set [3] is SARS-CoV-2. Nature of the data set: Mouse challenge with SARS-CoV-2, lung histopathology scoring. The following applies: 50 mg/kg I.P., AAV/hACE2 mice, day 5 post-SARS-CoV-2 infection; score scale 0-5; 2 out of 5. The data set is classed as in vivo, AAV/hACE2 C57BL/6 mice.
Data set [4] concerns SARS-CoV-2. As to the kind of experiment: SARS-CoV-2 infection of Vero E6 cells, quantified by N protein expression (IFA / PRNT). The data set is classed as cell-based. The following applies: Severe acute respiratory syndrome coronavirus 2, Vero C1008, Vero E6 cells pretreated 20 hr, infected at MOI=0.01 for 2 days, read-out: IC50 (anti-SARS-CoV-2 activity).
Data set [5] in a line: in vitro. Particulars: African green monkey.

Consider `O=C(O)c1ccc2c(c1)nc(Nc1cccc(Cl)c1)c1ccncc12` [Compound A, Silmitasertib], for which the “reduction of plaque formation” value in data set [1] was 75%. In addition, in data set [2], the CC50 is more than 5000 nM. For the same molecule, the “clinical score of lung histopathology” value in data set [3] is “less than 2”. The IC50 (as a rule, the concentration needed to halve the response being measured) in data set [4] is 2740 nM.
As for `O=C1NC(=O)/C(=C/c2cnn3c(NC4CC4)cc(Nc4cc(Cl)ccc4F)nc23)N1` [Compound B], the “reduction of plaque formation” value in data set [1] is given as 75%. In data set [2], this molecule returned a CC50 of 5900 nM. The IC50 in data set [4] was determined as 126 nM.
For the molecule `CC(N)C(=O)OCN1C(=O)N/C(=C\c2cnn3c(NC4CC4)cc(Nc4cc(Cl)ccc4F)nc23)C1=O` (stereo not drawn) [Compound C], the “reduction of plaque formation” value in data set [1] amounted to 75%. This molecule also registered a CC50 in data set [2] of 4220 nM. The half-inhibitory concentration (IC50) in data set [4] was 97 nM.
In data set [5], `CCC(CC)COC(=O)[C@H](C)N[P@](=O)(OC[C@H]1O[C@@](C#N)(c2ccc3c(N)ncnn23)[C@H](O)[C@@H]1O)Oc1ccccc1` [Compound E, Remdesivir, reference compound] gave a CC50 of more than 5000 nM. For the same molecule, the IC50 in data set [4] was 830 nM.
